# Earlier results in article PMC5937704 (Biochemistry, 2018).
# What was measured:
# [1] = tested on: bromodomain 1 (BD1) of TAF1
# [2] = tested on: bromodomain 2 (BD2) of TAF1
smiles,measurement,setting,value
"CCOC(=O)Nc1cc(-c2ccc(C)c(NS(C)(=O)=O)c2)nn2c(C)nnc12 [BSP, Bromosporine]",affinity for BD1 of TAF1,[1],significantly weaker (micromolar) affinity
same,affinity for BD2 of TAF1,[2],nanomolar affinity
